Data on one molecule can be found in patent US20050143336A1 (priority 2003, published 2005).

Like-named read-outs stand apart in the source and are kept apart here.

Test [1] concerns p38MAPK, pJNK, p44/42MAPK, pATF-2, pc-Jun, COX-2 in MRC-9 fibroblast cells. As to the kind of experiment: Inflammation-associated signaling molecules in MRC-9 cells transfected with FUS1-nanoparticles (western blot). In kind it is cell-based, Human. Particulars: naproxen 0.5 mM prior to FUS1-nanoparticles. How it is done: (§1) In vitro experiments. To determine the effect of FUS1-nanoparticles on the activation of signaling molecules associated with inflammation, MRC-9 fibroblast cells were seeded in six-well plates (5×10^5 cells/well) and incubated overnight at 37° C. and 5% CO2. […] Two-three hours after treatment, cells were transfected with FUS1-nanoparticles (2.5 μg DNA) in 0.2% serum medium. Cells were harvested at different time-points (2 h, 4 h, 15 h) after transfection, washed, and cell lysates prepared as previously described (Ramesh et al., 2001a). Untransfected cells treated with PBS served as control in these experiments. Cell lysates were subjected to western blotting analysis and probed with various antibodies as previously described (Ramesh et al., 2001b; Ito et al., 2003). In all the experiments, β-actin was detected using anti-β-actin antibody (Sigma Chemicals, St. Louis, Mo.) as a measure of internal loading control.

The subject of test [2] is p38, JNK, ERK, pATF2, pcJun, STAT3, COX-2. Description: Western blot of signaling molecules in lung, liver and spleen after FUS1-nanoparticle with or without naproxen. In kind it is in vivo, C3H mice. How it is done: Western blot analysis for the Signaling molecules. At the time of western blot analysis, organs were slowly thawed on ice. […] Whole Cell lysates were collected in an Eppendorf tube and sonicated for 30 seconds and heated in a water bath at 95° C. for 5 mins and then centrifuged at 13000 rpm for 10 min at 4° C. The supernatants were mixed with 5% 2-mercaptoethanol and stored at −80° C. Protein concentrations was determined by BCA protein assay. Aliquots of cell extracts containing 50 μg of total protein were resolved in 10% SDS-PAGE and transferred from gel to nitrocellulose membrane (Hybond-ECL; Amersham Pharmacia Biotech, UK) and then blocked for 1 h at room temperature (5% nonfat milk powder and 0.1% Tween 20 in TBS or PBS). Then the membranes were incubated with the primary antibodies, phosphospcific p38 (1:1000), phosphospecific pJNK (1:1000), phosphospecific p44/42 (1:1000), phospho ATF2 (1:1000), phospho cJun (1:1000), phospho STAT3 (1:1000) and COX-2 (1:1000). The membranes were then incubated with HRP-conjugated rabbit IgG Ab (Amersham) and the bound antibodies were visualized by enhanced chemiluminescence (Amersham; Piscataway, N.J.). The expression of α-actin was used as the loading control.
(In general: In western blotting, separated proteins are transferred to a membrane and probed.)

Test [3] has as its system FUS1 protein expression in the lungs. Conditions: naproxen 15 mg/kg orally 2 hour prior to i.v. DOTAP:Chol-FUS1 complex vs complex alone. As for the experimental part: In vivo treatment of immunocompetent animals by intravenous injection of DOTAP:Cholesterol-FUS1 complex. Female C3H mice were divided into 3 groups (n=12/group). […] Lung tissues were later homogenized, and total protein lysates prepared. Protein concentration in the lysate were determined by the BCA method and analyzed for FUS1 expression by western blot analysis. FUS1 protein was detected using a anti-FUS1 antibody. Untreated animals served as controls.

For test [4], the system named is C3H mice.
Test [5] concerns mouse TNF-α. Conditions: naproxen 15 mg/Kg orally 3 h prior to FUS1-nanoparticles 100 μg DNA i.v.
Protocol: In vivo experiments. To determine the effect of intravenous administration of FUS1-nanoparticles on inflammation and the potential use of inhibitors, in vivo experiments were conducted in immunocompetent female C3H mice. Mice were divided into three groups (n=5/group). […] Group 3 received intravenous injection of FUS1-nanoparticles only. The amount of plasmid DNA injected was 100 μg. […] At 2 h, 4 h, 6 h and 15 h after treatment with FUS1-nanoparticles, animals were euthanized and blood and organs (lung, liver, spleen) collected. Blood samples were analyzed for mouse TNF-α by ELISA (R&D Systems, MI). Tissue samples were analyzed for expression of inflammation-associated signaling molecules by western blotting (Ito et al., 2003).
Test [6] deals with luciferase expression in RAW 264.7 cells. Conditions: RAW 264.7, 0.5 mM naproxen pretreatment.
Protocol: To determine the effect of inhibitors on transgene expression, cells were transfected with a marker gene, luciferase (luc), complexed with nanoparticle. All other experimental conditions were the same as described above. […] Luciferase expression was expressed as relative light units per mg of protein (RLU/mg). Assays were performed in triplicates. Experiments were performed two times and the results represented as the average of two separate experiments.
The subject of test [7] is p38MAPK, JNK, p44/42 MAPK, ATF2, cJun, STAT3, COX-2 in RAW 264.7 cells. As to the kind of experiment: Signaling molecules in RAW 264.7 macrophage cells transfected with FUS1-nanoparticle (western blot). In kind it is cell-based, Mouse. As for the experimental part: as §1, with “of nanoparticle-FUS1 complex” for “of FUS1-nanoparticles”, “inflammation, RAW macrophage” for “inflammation, MRC-9 fibroblast”, “plates (1×10^6” for “plates (5×10^5”, “cells/well) and incubated overnight at 37° C. and 5% CO2. The following day, tissue culture medium was replaced with fresh 0.2% medium” for “cells/well)”, “with FUS1-nanoparticle” for “with FUS1-nanoparticles”, “described (Ito” for “described (Ramesh et al., 2001b; Ito”

In test [8] the test system is serum TNF-α, IL-6, Il-1α and IFN-γ. Description: Serum cytokine profile after FUS1-nanoparticle with or without naproxen (ELISA). In kind it is in vivo, C3H mice. Particulars: naproxen 15 mg/kg orally pretreatment. As for the experimental part: Cytokine profiles, Organ toxicity and Signalling molecules in C3H mice. To determine the cytokine profile, organ toxicity, signaling molecules responsible for inflammation, experiments were performed using immunocompetent female C3H mice. […] The amount of FUS1 plasmid injected was 100 μg. Serum and organ cytokine levels were determined by ELISA for murine TNF-α and murine Il-6. At indicated times after injection, blood was obtained via aspiration after right heart puncture. The blood was allowed to stand for 4 hours at 4° C. and then was centrifuged twice at 15,000 g for 10 minutes at 4° C. The supernatants (serum) were kept at −80° C. until used. Cytokine concentrations were quantified using specific ELISA kits (R&D systems) according to manufacturer's instructions. Organs were collected at 2, 4, and 15 h and were snap-frozen in liquid nitrogen and stored at […] until time of ELISA and Western blot analysis. At the time of ELISA, organs were slowly thawed on ice. The lung, liver and spleen was homogenized in 750 μl PBS containing a cocktail of protease inhibitors using a tissue homogenizer. The cytoplasmic fraction was isolated as the supernatant fraction following centrifugation at 15,000 g for 20 min at 4° C. The supernatant was used for the determination of TNF-α and IL-6 were quantitated by ELISA kits purchased from R&D Sytems and Biosource.fraction.

`COc1ccc2cc([C@H](C)C(=O)O)ccc2c1` [Naproxen, naproxen]: in test [1], the “expression of downstream substrates pATF-2, pc-Jun and COX-2” value is given as “decreased expression”; the “expression of p38MAPK, pJNK and p44/42MAPK” value is “significant inhibition”. Besides, the “phosphorylation of JNK, ATF-2, cJun, STAT3 ser727 and Tyr 705 in liver and spleen” value in test [2] (naproxen 15 mg/kg) was “inhibited”. In addition, the “p38 phosphorylation in lung” value in test [2] (naproxen 15 mg/kg 2 h before FUS1-nanoparticle, all time points) is “complete inhibition”. In addition, the “JNK and ERK phosphorylation in lung” value in test [2] (naproxen 15 mg/kg, 2 and 4 h) is recorded as “partial inhibition”. The “COX-2 induced by FUS1-nanoparticle” value in test [2] (naproxen 15 mg/kg, 2 h) was “inhibition”. The “phosphorylation of ATF-2, cJUN and STAT3 (Ser 727, Tyr705) in lung” value in test [2] (naproxen 15 mg/kg, 4 h and 15 h) is given as “inhibited”. In test [3], the “FUS1 protein expression in the lungs” value is “No significant differences”. The percentage of survival in test [4] (naproxen 5 mg/kg orally 2 to 3 h before FUS1-nanoparticle (100 μg FUS1)) worked out at 50%. The same molecule registered a percentage of survival in test [4] (naproxen 15 mg/kg orally 2 to 3 h before FUS1-nanoparticle (100 μg FUS1)) of 100%. Moreover, the “TNF-α expression levels in blood at 2 h” value in test [5] was 411 pg/mL. The “transgene (luciferase) expression” value in test [6] is on record as “did not inhibit transgene (luciferase) expression but rather slightly enhanced the transgene expression over time”. Besides, the “p38MAPK, pJNK, pATF-2 and pcjun” value in test [7] (RAW 264.7, 0.5 mM naproxen pretreatment, 2 and 4 h) was “significantly inhibited”. For the same molecule, the “phosphorylation of STAT 3” value in test [7] (RAW 264.7, 0.5 mM naproxen, 4 and 15 h) was “inhibited”. For the same molecule, the “expression of COX-2” value in test [7] (RAW 264.7, 0.5 mM naproxen, 4 h) is reported as “inhibited”. Besides, the “serum TNF-α, IL-6, Il-1α and IFN-γ levels induced by FUS1-nanoparticle” value in test [8] is “significantly inhibited”.
